Measured values taken from patent US20260327264A1, “PEPTIDE INHIBITORS OF INTERLEUKIN-23 RECEPTOR” (Zealand Pharma A/S, priority 2023, published 2026).
Read-outs that look alike come from different tables or passages of the source. *1 amine or outer side, *2 acyl side, *3 side chain or, on linkers, in order; H or OH if unused. Where a SMILES comes first, the peptide text is derived from it. Bridges are numbered along the chain shown (N, C = ends). [ ]: non-standard residue; d: D form. 2Nal = N[C@@H](Cc1ccc2ccccc2c1)C(=O)O; AEF = NCCOc1ccc(C[C@H](N)C(=O)O)cc1; X1 = O=C(Cc1ccc(CN[*:1])cc1)[*:2]; 3Pal = N[C@@H](Cc1cccnc1)C(=O)O; αMeL = CC(C)C[C@](C)(N)C(=O)O; Dab = NCC[C@H](N)C(=O)O; Sar = CNCC(=O)O

What was measured:
[1] = Peptide stability in simulated intestinal fluid (SIF); assay type: in vitro ADME; settings: simulated intestinal fluid; for remaining at 1 h, 10 µM: pig, SIF, pH 6.8, pancreatin, 37° C.
Procedure, shortened: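 Peptide at 10 μM final in USP-type SIF (10 g/L porcine pancreatin, phosphate buffer pH 6.8), shaken at 37 °C. Samples at 0, 1 and 4 h quenched in acetonitrile/0.1% formic acid and analysed by LC-HRMS. Percent remaining calculated from absolute peak areas relative to time zero.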

[2] = tested on: IL-23 mediated STAT3 signalling (DB cells); assay: Functional inhibition of IL-23 mediated STAT3 signalling (phospho-STAT3 Tyr705) in DB cells; assay type: cell-based, human; settings: for hIL-23 (pSTAT3) antagonist % inhibition: Table 3-2, maximal inhibitory response, EC80 of hIL-23
Procedure, shortened: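 Phospho-STAT3 in lysed DB cells quantified by MSD kit after 90 min exposure to EC80 human IL-23, following 15 min compound pretreatment (37° C, 5% CO2). IC50 and maximal inhibition derived from curves normalized between IL-23-only and buffer-only controls.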

[3] = Peptide stability in simulated gastric fluid (SGF); assay type: in vitro ADME; settings: pig, pH 1.2, pepsin, 37° C.
Procedure, shortened: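 Peptide (10 μM final) incubated at 37 °C in USP SGF, pH 1.2 with porcine pepsin 3.2 g/L; aliquots at 0, 1 and 4 h quenched in acidified acetonitrile.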

[4] = molecular target: T1, human IL-23R (Homo sapiens, UniProt Q5VWK5); assay: Binding assay: displacement of fluorophore (TAMRA)-labelled reference compound from human IL-23R (BRET, Nluc-IL23R fusion protein membranes); settings: for Emax: read-out: % displacement (hIL-23R binding); for potency of the compound (in words): potency against IL-23R
T1 construct: Nanoluc luciferase (Nluc); secretion signal encoded by the plasmid (not specified); expressed in transfected cells; crude membranes used in the assay
T1 sequence (Q5VWK5 22-629): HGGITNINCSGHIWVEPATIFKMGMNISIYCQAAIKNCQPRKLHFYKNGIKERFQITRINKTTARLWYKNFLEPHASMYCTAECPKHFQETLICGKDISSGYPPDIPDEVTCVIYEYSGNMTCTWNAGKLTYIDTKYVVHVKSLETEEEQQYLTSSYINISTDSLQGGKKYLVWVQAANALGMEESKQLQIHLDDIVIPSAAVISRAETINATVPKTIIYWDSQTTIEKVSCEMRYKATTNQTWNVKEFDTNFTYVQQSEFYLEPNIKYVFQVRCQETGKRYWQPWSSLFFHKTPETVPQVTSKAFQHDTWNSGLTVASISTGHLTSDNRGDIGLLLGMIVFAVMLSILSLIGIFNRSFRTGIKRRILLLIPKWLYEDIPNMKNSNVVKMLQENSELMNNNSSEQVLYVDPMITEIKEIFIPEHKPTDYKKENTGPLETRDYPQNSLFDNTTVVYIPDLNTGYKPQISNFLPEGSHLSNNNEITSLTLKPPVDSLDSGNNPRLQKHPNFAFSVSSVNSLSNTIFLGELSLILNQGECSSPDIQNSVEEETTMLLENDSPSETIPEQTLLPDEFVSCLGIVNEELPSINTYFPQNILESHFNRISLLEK

[5] = Table 3-2, EC80 of hIL-23, read-out: hIL-23 (pSTAT3) antagonist IC50
[6] = EC80 of hIL-23, read-out: IC50 (pSTAT3)

remaining at 1 h, 10 µM [1] [%] | IC50 [2, 5] [nM] | remaining at 1 h, 10 µM [3] [%] | remaining at 4 h, 10 µM [3] [%] | IC50 [4] [nM] | Emax [4] [%] | SIF stability (in words) [1] | IC50 [2, 6] [nM] | potency of the compound (in words) [4] | Structure (SMILES) | hIL-23 (pSTAT3) antagonist % inhibition [2] [%]
91 | 0.042 | 94 | 90 | 0.011 | 96 | – | – | – | CNC(=O)CC[C@@H]1NC(=O)[C@H](Cc2c[nH]c3ccccc23)NC(=O)[C@@H]2CCC(=O)NCC[C@H](NC1=O)C(=O)N[C@@H](Cc1ccc(OCCN)cc1)C(=O)N[C@@H](Cc1ccc3ccccc3c1)C(=O)N[C@@](C)(CC(C)C)C(=O)N[C@H](C(=O)N[C@@H](CCN)C(=O)N[C@@H](Cc1cccnc1)C(=O)NC)CCC(=O)NCc1ccc(cc1)CC(=O)N[C@@H](CO)C(=O)N2 [Compound 29, [4-Aminomethyl-phenylacetyl](1c)*SE(2c)W[Q(Me)][Dab](2c)[Y(2-aminoethoxy)][2-Nal][2-Me-Leu]E(1c)[Dab][3-(3-Pyridyl)-Ala]-[NHMe]] ([X1]SEWE(NHMe)[Dab][AEF][2Nal][αMeL]E[Dab][3Pal]-NHMe; lactam 3-6, N-10) | 99
96 | 0.54 | 105 | – | – | 101 | – | – | – | CNC(=O)[C@H](Cc1cccnc1)NC(=O)[C@H](CCN)NC(=O)[C@@H]1CCC(=O)NCc2ccc(cc2)CC(=O)N[C@@H](C)C(=O)N[C@H]2CCC(=O)NCC[C@H](NC(=O)[C@H](CCC(N)=O)NC(=O)[C@H](Cc3c[nH]c4ccccc34)NC2=O)C(=O)N[C@@H](Cc2c[nH]c3ncccc23)C(=O)N[C@@H](Cc2ccc3ccccc3c2)C(=O)NC(C)(C)C(=O)N1 [Compound 43, [4-Aminomethyl-phenylacetyl](1c)*AE(2c)WQ[Dab](2c)[7-AzaTrp][2-Nal][Aib]E(1c)[Dab][3-(3-Pyridyl)-Ala]-[NHMe]] | 98
– | 0.026 | 107 | 103 | – | 97 | – | – | – | CNC(=O)[C@H](Cc1cccnc1)NC(=O)[C@H](CCN)NC(=O)[C@@H]1CCC(=O)NCc2ccc(cc2)CC(=O)N[C@@H](C)C(=O)N[C@H]2CCC(=O)NCC[C@H](NC(=O)[C@H](CCC(N)=O)NC(=O)[C@H](Cc3c[nH]c4ccccc34)NC2=O)C(=O)N[C@@H](Cc2ccc(OCCN)cc2)C(=O)N[C@@H](Cc2ccc3ccccc3c2)C(=O)N[C@@](C)(CC(C)C)C(=O)N1 [Compound 20, [4-Aminomethyl-phenylacetyl](1c)*AE(2c)WQ[Dab](2c)[Y(2-aminoethoxy)][2-Nal][2-Me-Leu]E(1c)[Dab][3-(3-Pyridyl)-Ala]-[NHMe]] | 101
96 | 0.053 | 91 | 87 | – | 103 | SIF stable | 0.053 | particularly potent | CNC(=O)[C@H](Cc1cccnc1)NC(=O)[C@H](CCN)NC(=O)[C@@H]1CCC(=O)NCc2ccc(cc2)CC(=O)N[C@@H](CO)C(=O)N[C@H]2CCC(=O)NCC[C@H](NC(=O)[C@H](CCC(N)=O)NC(=O)[C@H](Cc3c[nH]c4ccccc34)NC2=O)C(=O)N[C@@H](Cc2ccc(OCCN)cc2)C(=O)N[C@@H](Cc2ccc3ccccc3c2)C(=O)N[C@@](C)(CC(C)C)C(=O)N1 [Compound 8, [4-Aminomethyl-phenylacetyl](1c)*SE(2c)WQ[Dab](2c)[Y(2-aminoethoxy)][2-Nal][2-Me-Leu]E(1c)[Dab][3-(3-Pyridyl)-Ala]-[NHMe]] | 101
102 | 0.025 | – | 95 | – | 100 | SIF stable | 0.025 | particularly potent | CC(C)C[C@]1(C)NC(=O)[C@H](Cc2ccc3ccccc3c2)NC(=O)[C@H](Cc2ccc(OCCN)cc2)NC(=O)[C@@H]2CCNC(=O)CC[C@H](NC(=O)[C@H](CO)NC(=O)Cc3ccc(cc3)CNC(=O)CC[C@@H](C(=O)N[C@@H](CCN)C(=O)N[C@@H](Cc3cccnc3)C(=O)N(C)CC(N)=O)NC1=O)C(=O)N[C@@H](Cc1c[nH]c3ccccc13)C(=O)N[C@@H](CCC(N)=O)C(=O)N2 [Compound 9, [4-Aminomethyl-phenylacetyl](1c)*SE(2c)WQ[Dab](2c)[Y(2-aminoethoxy)][2-Nal][2-Me-Leu]E(1c)[Dab][3-(3-Pyridyl)-Ala][Sar]-[NH2]] ([X1]SEWQ[Dab][AEF][2Nal][αMeL]E[Dab][3Pal][Sar]-NH2; lactam 3-6, N-10) | 97
